Source: patent US9012484B2, “Crystal and pharmaceutical preparation containing the same crystal” (Pola Pharma Inc., priority 2012, dated 2015)
“Also recorded” adds a separate entry of the source. One block for each compound: values may come before it.

Tests used:
[1] = Elution test: time required for dissolution in anhydrous ethanol (50 rpm); format: physicochemical; conditions: 1 g sample in 500 mL anhydrous ethanol, room temperature, stirring 50 rpm
Description: (§1) An elution test (stirring condition: 50 rpm) was performed for Raw Material 1 (Crystal of Comparative Example) and Crystal 1 of Example 1 to investigate the elution dynamics. After confirming the dissolution of all crystals, the Z isomer and the SE isomer, which were isomers produced in the solution, were analyzed and quantitatively measured by means of HPLC. In the elution test, 500 mL of anhydrous ethanol was used as the solvent, wherein 1 g of the sample was dissolved at room temperature while stirring, and the time, which was required for the dissolution, was simultaneously measured. Accordingly, it is understood that the time, which is required for the dissolution, is short for Crystal 1, and thus the production of the Z isomer and the SE isomer as the isomers is suppressed in the dissolving step.

[2] = HPLC measurement of Z and SE isomers produced in the solution after dissolution; format: physicochemical; conditions: in ethanol solution after dissolution of all crystals
Description: as §1, with “step. The condition for HPLC was as follows. Column: CHIRALCEL OD-RH 4.6×150 mm, column temperature: 35° C., mobile phase: mixture solution of methanol/2% aqueous solution of potassium hexafluorophosphate (85:15, v/v), flow rate: 0.6 mL/min., detection: 295 nm).” for “step.”

[3] = Comparison of state of dissolution in ethanol between crystals; format: physicochemical; conditions: rank order between crystals
Description: The alcohol content of Crystal 4 obtained by changing the recrystallization condition of Example 1 was measured, and the state of dissolution in ethanol was also compared with those of Crystal of Comparative Example of Example 1 and Crystal 3 to compare the solubility.
The alcohol content of Crystal 5 obtained by changing the recrystallization condition of Example 1 was measured, and the state of dissolution in ethanol was also compared with those of Crystal of Comparative Example of Example 1 and Crystal 2 to compare the solubility.
The alcohol content of Crystal 6 obtained by changing the recrystallization condition of Example 1 was measured, and the state of dissolution in ethanol was also compared with those of Crystal of Comparative Example of Example 1, Crystal 4, and Crystal 3 to compare the solubility.
The alcohol content of Crystal 7 obtained by changing the recrystallization condition of Example 1 was measured, and the state of dissolution in ethanol was also compared with those of Crystal of Comparative Example of Example 1 and Crystal 5 to compare the solubility.

[4] = State of dissolution in ethanol observed with the naked eye; format: physicochemical
Description: The alcohol contents of crystals (Crystals 2, 3) obtained by changing the recrystallization condition of Example 1 were measured, and the state of dissolution in ethanol was also observed with the naked eye. Crystal 2 and Crystal 3 are the crystals of the present invention, wherein the dissolution state was satisfactory as well.
The alcohol content (content of alcohol used in recrystallization) of compositions obtained by changing the recrystallization condition of Example 1 was measured, and the state of dissolution in ethanol was also observed with the naked eye.

[5] = test system: Trichomonas vaginalis (clinically isolated strain); assay: Trichomonas vaginalis culture, cell count on hemocytometer; format: cell-based; conditions: 5.08 mg crystal in Trichomonas medium F, culture 4 days at 37° C., start 3.93×10^5 cells/mL
Description: Effects of an active ingredient containing alcohol were examined by utilizing crystal 10. Crystal, which was obtained by performing recrystallization from a mixture solution of ethyl acetate and n-hexane and which contained no alcohol, was used as a comparative example (comparative crystal). Direct effects of luliconazole were investigated by utilizing Trichomonas vaginalis (clinically isolated strain). Samples were prepared such that 5.08 mg of comparative crystal was added in “Trichomonas medium F” (Fuji Pharma), 5.08 mg of crystal 10 was added in the medium, and 5 μL of water was added in the medium (control). […] of culture solution containing 3.93×10^5 cells/mL of Trichomonas vaginalis was added to each of the samples, followed by culturing for 4 days at 37° C. After that, cells of Trichomonas were counted on a hemocytometer. Between these three samples, significant difference was confirmed at a critical value of not more than 1%.

[6] = Tablet hardness measurement (PTB311); format: physicochemical; conditions: tablet 50% lactose / 50% luliconazole, tableting pressure 1 ton/cm^2, 9 mmφ, average of 6 tablets
Description: According to the formulation described in the following Table 6, tablet was prepared, and its hardness was measured. PTB311 (Pharma Test GmbH) was used as a measurement apparatus for hardness. Condition of tableting was performed at tableting pressure of 1 ton/cm^2 by utilizing 9 mmφ of a mortar and mallet. Comparative example was prepared by performing same procedures as described above by using comparative crystal. […] Accordingly, it is assumed that a tablet having high hardness can be obtained by utilizing the active ingredient containing alcohol since the active ingredient containing alcohol has strong affinity between the active ingredients.

Time required until dissolution [1]: 200 min | Amount of generation of SE isomer [2]: 0.06% | Amount of generation of Z isomer [2]: 0.06%
Compound: N#C/C(=C1/SC[C@@H](c2ccc(Cl)cc2Cl)S1)n1ccnc1 [Crystal 1, luliconazole]

Solubility (state of dissolution in ethanol) [4]: satisfactory
Compound: N#C/C(=C1/SC[C@@H](c2ccc(Cl)cc2Cl)S1)n1ccnc1 [Crystal 2, luliconazole]
Solubility order (state of dissolution in ethanol compared) [3]: Crystal of Comparative Example<<Crystal 2=Crystal 5

Solubility (state of dissolution in ethanol) [4]: satisfactory
Compound: N#C/C(=C1/SC[C@@H](c2ccc(Cl)cc2Cl)S1)n1ccnc1 [Crystal 3, luliconazole]
Solubility order (state of dissolution in ethanol compared) [3]: Crystal of Comparative Example<<Crystal 4=Crystal 6<Crystal 3

Compound: N#C/C(=C1/SC[C@@H](c2ccc(Cl)cc2Cl)S1)n1ccnc1 [Crystal 4, luliconazole]
Solubility order (state of dissolution in ethanol compared) [3]: Crystal of Comparative Example<<Crystal 4=Crystal 6<Crystal 3

Compound: N#C/C(=C1/SC[C@@H](c2ccc(Cl)cc2Cl)S1)n1ccnc1 [Crystal 5, luliconazole]
Solubility order (state of dissolution in ethanol compared) [3]: Crystal of Comparative Example<<Crystal 2=Crystal 5; also recorded: Crystal of Comparative Example<<Crystal 5=Crystal 7

Compound: N#C/C(=C1/SC[C@@H](c2ccc(Cl)cc2Cl)S1)n1ccnc1 [Crystal 6, luliconazole]
Solubility order (state of dissolution in ethanol compared) [3]: Crystal of Comparative Example<<Crystal 4=Crystal 6<Crystal 3

Compound: N#C/C(=C1/SC[C@@H](c2ccc(Cl)cc2Cl)S1)n1ccnc1 [Crystal 7, luliconazole]
Solubility order (state of dissolution in ethanol compared) [3]: Crystal of Comparative Example<<Crystal 5=Crystal 7

Hardness [6]: 73.7 ± 4.2 N | Solubility (state of dissolution in ethanol) [4]: satisfactory
Compound: N#C/C(=C1/SC[C@@H](c2ccc(Cl)cc2Cl)S1)n1ccnc1 [Crystal 10, luliconazole]
Cells of Trichomonas counted, Average [5]: 256000

Hardness ([6]; listed as Comparative crystal): 29.1 ± 3.0 N | Solubility order (state of dissolution in ethanol compared) ([3]; listed as Comparative Example): Comparative Example<<Crystal 4<Crystal 3 | Time required until dissolution [1]: 300 min | Amount of generation of SE isomer [2]: 0.09% | Amount of generation of Z isomer [2]: 0.13%
Compound: N#C/C(=C1/SC[C@@H](c2ccc(Cl)cc2Cl)S1)n1ccnc1 [Crystal of Comp. Ex., luliconazole, reference compound]
Cells of Trichomonas counted, Average ([5]; listed as Comparative crystal): 376000 | Solubility order (state of dissolution in ethanol compared) ([3]; listed as Crystal of Comparative Example): Crystal of Comparative Example<<Crystal 2=Crystal 5; also recorded: Crystal of Comparative Example<<Crystal 4=Crystal 6<Crystal 3; also recorded: Crystal of Comparative Example<<Crystal 5=Crystal 7
